How the values were obtained:
[1] = test system: CD8 tumor infiltrating cells; experiment: Flow cytometry / intracellular cytokine staining of tumor infiltrating CD8 T cells in PPSM tumor bearing animals; format: in vivo, mouse; conditions: FIGS. 8I-8L
Description: (subcutaneous) injection once every 14 days.
Flow cytometry. Cells were incubated for 20 min on ice with e506 fixable viability dye and the following antibodies: […] (H57-597), CD4 (RM4-5), CD8 (53-6.7), CD44 (IM7), PD-1 (J43) and Thy1.1 (HIS51). Intracellular proteins Ki67 (SolA15), IFNγ (XMG1.2), TNFα (MP6-CT22), Nur77 (12.14) and Granzyme B (NGZB) were detected using the Fixation/Permeabilization Solution kit from BD Biosciences. All antibodies and viability dyes were purchased from eBioscience, Biolegend, or BD Biosciences. Data were collected with a Fortessa™ flow cytometer (BD Biosciences) and analyzed using FlowJo software (Tree Star). Unless noted otherwise in the figure legend, cells were gated through live/TCRβ+/CD8+ gates for analysis.
In vitro activation and intracellular cytokine staining.

[2] = test system: OTI T cells in the tumor; experiment: Adoptive T cell therapy model: OT1 CD8 T cells in MCA-OVA tumor bearing RIP-mOVA animals

Structure (SMILES): CNC(=O)c1ccc(N2C(=S)N(c3ccc(C#N)c(C(F)(F)F)c3)C(=O)C2(C)C)cc1F [enzalutamide, 4-(3-(4-cyano-3-(trifluoromethyl)phenyl)-5,5-dimethyl-4-oxo-2-thioxoimidazolidin-I-yl)-2-fluoro-N-methyl benzamide]
- polyfunctionality of tumor-associated CD8 T cells [1]: insufficient to improve the polyfunctionality
- cytokine production in tumor specific T cells ([2]; FIGS. 10A-10C legend): increased cytokine production
- IFNγ production of tumor-antigen specific CD8 T cells ([2]; female mice, FIG. 10C): increased
- IFNγ production of tumor-antigen specific CD8 T cells ([2]; male mice, chemically castrated (degarelix), FIG. 10B): increased

From US20240400991A1, “IMMUNE CELLS WITH REDUCED ANDROGEN RECEPTOR (AR) LEVEL, AND METHODS OF THEIR USE TO ENHANCE ANTI-CANCER THERAPY” (Oregon Health & Science University, priority 2021, published 2024)
